Experiments:
[1] = system: A549 cells; assay: Growth inhibition of siRNA-transfected A549 cells, SYBR Green I DNA content; type: cell-based, human; details: A549 cells, 10 nM siRNA, DNA content 96 hours after transfection, transporter gene targets
Outline: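 A549 cells reverse-transfected with 10 nM Stealth siRNAs via Lipofectamine RNAiMAX, seeded at 5×10^3 cells/cm^2 in RPMI 1640/10% FCS; non-specific siRNA control. DNA content read 96 h post-transfection by SYBR Green I fluorescence (ex 485/em 535 nm) after freeze-thaw and Triton X-100 lysis; mean of three wells.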

[2] = system: target transcript mRNA in A549 cells; assay: Level of mRNA of target transcript in A549 cells by quantitative RT-PCR (Tables 12 and 13); type: cell-based, human; details: 24 h post-transfection; for mRNA knockdown of transporter gene target transcript, 0.1 nM: 0.1 nM siRNA; for mRNA knockdown of transporter gene target transcript, 1 nM: 1 nM siRNA; for mRNA knockdown of transporter gene target transcript, 10 nM: 10 nM siRNA
Outline: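 A549 cells were transfected with siRNA at 0.1, 1.0 and 10 nM. RNA was extracted 24 h later, reverse-transcribed with random primers, and target mRNA quantified by SYBR Green qRT-PCR. Values were normalised to housekeeping genes HPRT and Lamin.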

Substance	Growth Inhibition in A549 cells by 10 nM siRNA [1]	mRNA knockdown of transporter gene target transcript, 0.1 nM [2]	mRNA knockdown of transporter gene target transcript, 1 nM [2]	mRNA knockdown of transporter gene target transcript, 10 nM [2]
SEQ ID NO: 4926: siRNA targeting SLC25A1 (CIC) (chain 1 AGTCCCACGTGTTCCGGTATTTGTG; chain 2 AGUCCCACGUGUUCCGGUAUUUGUG; chemistry not given here; one strand in two spellings)	++ (inhibits by at least 75%)	++ (70-90% mRNA knockdown)	++ (70-90% mRNA knockdown)	
SEQ ID NO: 4927: siRNA targeting SLC25A1 (CIC) (chain 1 TGCCTTTGTAGAATGCCTTGAGCCC; chain 2 UGCCUUUGUAGAAUGCCUUGAGCCC; chemistry not given here; one strand in two spellings)	− (no growth inhibition)	++ (70-90% mRNA knockdown)	++ (70-90% mRNA knockdown)	
SEQ ID NO: 4928: siRNA targeting SLC25A10 (DIC) (chain 1 AATAAAGCTGGCGACAAAGTGAGTG; chain 2 AAUAAAGCUGGCGACAAAGUGAGUG; chemistry not given here; one strand in two spellings)	++ (inhibits by at least 75%)	++ (70-90% mRNA knockdown)	++ (70-90% mRNA knockdown)	
SEQ ID NO: 4929: siRNA targeting SLC25A10 (DIC) (chain 1 TAGGTCATCTGTCTGCACAGCGAGG; chain 2 UAGGUCAUCUGUCUGCACAGCGAGG; chemistry not given here; one strand in two spellings)	− (no growth inhibition)	− (<50% mRNA knockdown)	+ (50-70% mRNA knockdown)	
SEQ ID NO: 4930: siRNA targeting SLC25A10 (DIC) (chain 1 TCCTGACGTTGACCAAGTCTGCGGG; chain 2 UCCUGACGUUGACCAAGUCUGCGGG; chemistry not given here; one strand in two spellings)	− (no growth inhibition)	++ (70-90% mRNA knockdown)	++ (70-90% mRNA knockdown)	
SEQ ID NO: 4931: siRNA targeting SLC29A1 (ENT1) (chain 1 TTGAAGATGGCACTGAGAGAGTTCC; chain 2 UUGAAGAUGGCACUGAGAGAGUUCC; chemistry not given here; one strand in two spellings)	++ (inhibits by at least 75%)	++ (70-90% mRNA knockdown)	++ (70-90% mRNA knockdown)	+++ (>90% mRNA knockdown)
SEQ ID NO: 4933: siRNA targeting SLC29A1 (ENT1) (chain 1 TGGAGACTGAAACTCCAGATTCCTC; chain 2 UGGAGACUGAAACUCCAGAUUCCUC; chemistry not given here; one strand in two spellings)	+ (inhibits by at least 50%)	− (<50% mRNA knockdown)	++ (70-90% mRNA knockdown)	++ (70-90% mRNA knockdown)
SEQ ID NO: 4934: siRNA targeting SLC29A2 (ENT2) (chain 1 TGTGAAGACCAACACAAGGCACAGC; chain 2 UGUGAAGACCAACACAAGGCACAGC; chemistry not given here; one strand in two spellings)	− (no growth inhibition)	+ (50-70% mRNA knockdown)	− (<50% mRNA knockdown)	
SEQ ID NO: 4935: siRNA targeting SLC29A2 (ENT2) (chain 1 TAACACACGATGGACATGAGGATGC; chain 2 UAACACACGAUGGACAUGAGGAUGC; chemistry not given here; one strand in two spellings)	− (no growth inhibition)	+ (50-70% mRNA knockdown)	+ (50-70% mRNA knockdown)	
SEQ ID NO: 4936: siRNA targeting SLC29A2 (ENT2) (chain 1 AAGATCCAGGGTCAGAGCTACTTTC; chain 2 AAGAUCCAGGGUCAGAGCUACUUUC; chemistry not given here; one strand in two spellings)	− (no growth inhibition)	− (<50% mRNA knockdown)	− (<50% mRNA knockdown)	
SEQ ID NO: 4937: siRNA targeting ATP2B1 (PMCA1) (chain 1 ATTTATGTAAGCTTGAACGACTGTC; chain 2 AUUUAUGUAAGCUUGAACGACUGUC; chemistry not given here; one strand in two spellings)	− (no growth inhibition)	++ (70-90% mRNA knockdown)	++ (70-90% mRNA knockdown)	
SEQ ID NO: 4938: siRNA targeting ATP2B1 (PMCA1) (chain 1 AAATCTTGTCTATCCTCTCTTGCTC; chain 2 AAAUCUUGUCUAUCCUCUCUUGCUC; chemistry not given here; one strand in two spellings)	− (no growth inhibition)	+ (50-70% mRNA knockdown)	++ (70-90% mRNA knockdown)	
SEQ ID NO: 4939: siRNA targeting ATP2B1 (PMCA1) (chain 1 ATTAACAGTAAGTTGGAACTGAAGG; chain 2 AUUAACAGUAAGUUGGAACUGAAGG; chemistry not given here; one strand in two spellings)	− (no growth inhibition)	+ (50-70% mRNA knockdown)	++ (70-90% mRNA knockdown)	
SEQ ID NO: 4946: siRNA targeting ATP2B4 (PMCA4) (chain 1 AATATCACCAACCACAATCTCAGCC; chain 2 AAUAUCACCAACCACAAUCUCAGCC; chemistry not given here; one strand in two spellings)	− (no growth inhibition)	++ (70-90% mRNA knockdown)	++ (70-90% mRNA knockdown)	
SEQ ID NO: 4947: siRNA targeting ATP2B4 (PMCA4) (chain 1 ATTACGCACAGCCTGATAATCCTGC; chain 2 AUUACGCACAGCCUGAUAAUCCUGC; chemistry not given here; one strand in two spellings)	− (no growth inhibition)	++ (70-90% mRNA knockdown)	++ (70-90% mRNA knockdown)	
SEQ ID NO: 4948: siRNA targeting ATP2B4 (PMCA4) (chain 1 ATCTGAGTCTGGATACGGTTCAGGC; chain 2 AUCUGAGUCUGGAUACGGUUCAGGC; chemistry not given here; one strand in two spellings)	− (no growth inhibition)	− (<50% mRNA knockdown)	++ (70-90% mRNA knockdown)	
SEQ ID NO: 4952: siRNA targeting ATP6V1B2 (chain 1 TACAACAGGACCTCTGTCAATGGGT; chain 2 UACAACAGGACCUCUGUCAAUGGGU; chemistry not given here; one strand in two spellings)	− (no growth inhibition)	− (<50% mRNA knockdown)	+ (50-70% mRNA knockdown)	
SEQ ID NO: 4953: siRNA targeting ATP6V1B2 (chain 1 ATGATATCAAGGAAGTCTTCGGCCA; chain 2 AUGAUAUCAAGGAAGUCUUCGGCCA; chemistry not given here; one strand in two spellings)	++ (inhibits by at least 75%)	− (<50% mRNA knockdown)	+ (50-70% mRNA knockdown)	
SEQ ID NO: 4954: siRNA targeting ATP6V1B2 (chain 1 TTTGGATTTCTTTACCAAACCAGCC; chain 2 UUUGGAUUUCUUUACCAAACCAGCC; chemistry not given here; one strand in two spellings)	− (no growth inhibition)	+ (50-70% mRNA knockdown)	+ (50-70% mRNA knockdown)	
SEQ ID NO: 4955: siRNA targeting ATP6V1C1 (chain 1 TTGATTGGATATTTGGCCATGTCCC; chain 2 UUGAUUGGAUAUUUGGCCAUGUCCC; chemistry not given here; one strand in two spellings)	− (no growth inhibition)	+ (50-70% mRNA knockdown)	++ (70-90% mRNA knockdown)	
